{"source": "patent US9248131B2", "about": "“Aquaporin modulators and methods of using them for the treatment of edema and fluid imbalance” (THE ARIZONA BOARD OF REGENTS ON BEHALF OF THE UNIVERSITY OF …, priority 2006, dated 2016)", "origin": "cited, not measured here", "biological_target": "T1, Na—K—Cl cotransporter (NKCC1) (Mus musculus, UniProt P55012)", "T1 sequence (P55012 1-1205)": "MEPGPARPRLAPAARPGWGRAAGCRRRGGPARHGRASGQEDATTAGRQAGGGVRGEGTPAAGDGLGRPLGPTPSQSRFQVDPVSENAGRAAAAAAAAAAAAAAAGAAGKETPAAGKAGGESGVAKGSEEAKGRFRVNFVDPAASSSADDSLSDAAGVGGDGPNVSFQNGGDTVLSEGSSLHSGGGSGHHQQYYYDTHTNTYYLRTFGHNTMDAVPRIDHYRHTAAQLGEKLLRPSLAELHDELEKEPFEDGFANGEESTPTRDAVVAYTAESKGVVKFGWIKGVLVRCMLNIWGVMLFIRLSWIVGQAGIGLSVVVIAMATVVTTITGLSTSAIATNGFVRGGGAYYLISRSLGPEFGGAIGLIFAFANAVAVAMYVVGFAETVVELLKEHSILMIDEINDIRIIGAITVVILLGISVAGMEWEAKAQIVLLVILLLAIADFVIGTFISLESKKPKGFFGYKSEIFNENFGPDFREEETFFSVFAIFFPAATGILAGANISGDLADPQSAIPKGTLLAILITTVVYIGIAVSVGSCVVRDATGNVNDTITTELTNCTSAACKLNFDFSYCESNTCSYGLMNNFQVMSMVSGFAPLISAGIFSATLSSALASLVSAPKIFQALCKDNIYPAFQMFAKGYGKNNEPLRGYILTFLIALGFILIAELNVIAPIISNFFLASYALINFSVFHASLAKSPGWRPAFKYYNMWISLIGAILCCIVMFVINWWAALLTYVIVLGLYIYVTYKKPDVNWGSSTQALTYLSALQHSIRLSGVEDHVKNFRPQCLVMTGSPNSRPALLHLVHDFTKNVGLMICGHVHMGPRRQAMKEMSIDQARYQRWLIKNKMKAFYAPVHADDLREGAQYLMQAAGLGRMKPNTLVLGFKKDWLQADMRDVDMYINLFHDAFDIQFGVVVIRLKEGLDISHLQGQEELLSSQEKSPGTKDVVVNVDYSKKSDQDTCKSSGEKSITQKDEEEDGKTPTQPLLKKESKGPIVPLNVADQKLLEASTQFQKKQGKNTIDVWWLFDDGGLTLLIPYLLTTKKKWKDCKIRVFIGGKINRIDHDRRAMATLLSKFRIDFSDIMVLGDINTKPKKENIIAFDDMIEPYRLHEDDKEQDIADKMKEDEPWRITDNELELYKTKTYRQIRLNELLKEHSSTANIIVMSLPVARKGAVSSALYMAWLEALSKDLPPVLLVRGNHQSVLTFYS", "settings": "read-out: IC50 (half-maximal blocking concentration) against Na—K—Cl cotransporter; mouse kidney collecting duct cell line; cited from earlier work"}
{"molecule": "CCCCNc1cc(C(=O)O)cc(S(N)(=O)=O)c1Oc1ccccc1", "note": "[bumetanide]", "values": [{"measurement": "IC50", "result": 330, "unit": "nM"}]}
